# Patent US8741614B2, “Crystal structure of isoglutaminyl cyclase” (Probiodrug AG, priority 2010, dated 2014)
# Key:
# human QC = human QC (Homo sapiens, UniProt Q16769); experiment: inhibition of human QC in vitro; type: biochemical
# mouse QC = mouse QC (Mus musculus, UniProt Q9CYK2); experiment: inhibition of mouse QC in vitro; type: biochemical
# solubility in water = type: physicochemical
# Sequence of mouse QC (Q9CYK2 36-362): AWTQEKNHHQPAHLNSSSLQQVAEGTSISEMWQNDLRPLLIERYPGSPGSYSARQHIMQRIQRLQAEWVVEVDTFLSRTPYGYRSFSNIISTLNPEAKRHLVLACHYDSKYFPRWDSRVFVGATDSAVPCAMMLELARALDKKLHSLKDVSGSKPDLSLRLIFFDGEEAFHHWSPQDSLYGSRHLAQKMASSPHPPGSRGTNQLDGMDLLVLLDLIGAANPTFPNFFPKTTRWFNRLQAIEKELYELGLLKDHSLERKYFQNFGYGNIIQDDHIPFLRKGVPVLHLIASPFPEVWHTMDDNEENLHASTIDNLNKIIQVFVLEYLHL
# Sequence of human QC (Q16769 29-361): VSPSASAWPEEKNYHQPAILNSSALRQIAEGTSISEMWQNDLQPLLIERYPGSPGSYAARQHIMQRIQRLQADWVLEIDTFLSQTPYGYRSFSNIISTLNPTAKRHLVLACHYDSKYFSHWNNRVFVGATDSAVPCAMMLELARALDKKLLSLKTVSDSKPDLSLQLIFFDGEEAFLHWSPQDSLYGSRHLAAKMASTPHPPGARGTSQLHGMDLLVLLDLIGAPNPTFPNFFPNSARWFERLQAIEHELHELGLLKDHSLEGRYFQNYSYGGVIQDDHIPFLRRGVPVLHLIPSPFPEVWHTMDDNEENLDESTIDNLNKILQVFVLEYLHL
structure (smiles),measurement,setting,value
"COc1ccc(NC(=S)NCCCn2ccnc2)cc1OC [Inhibitor A, 1-(3-(1H-Imidazol-1-yl)propyl)-3-(3,4-dimethoxyphenyl)thiourea]",inhibition of human QC,human QC,inhibits
same,inhibition of mouse QC,mouse QC,inhibits
same,solubility in water,solubility in water,soluble in water
